Tests used:
HIV = assay: Viral expression in reactivated infected CD4 cells from patients (p24 ELISA); format: cell-based; conditions: Human immunodeficiency virus 1, 240 h, 7 patients tested
Description: The activation of infected CD4+cells is known to stimulate the production of the virus. The effect of DABF-AmB was therefore tested on the vital expression in cells from AIDS patients reactivated in vitro by anti-CD3, by anti-CD28, by PMA (phorbol myristate acetate) or by soluble anti-CD3.
PBMCs from patients (<300 CD4) were isolated on a Ficoll gradient using blood. The CD4 cells were isolated by cell sorting using a flow cytometer (FACS-Star, Becton-Dickinson, Mountain View, Calif.) after OKT4-FITC labelling. The CD4 cells were washed again and then re-inoculated as indicated in 5 and activated either with anti-CD3 or anti-CD28 antibodies or with PMA. Viral expression was evaluated after 10 days by ELISA assay of p24 in the supernatants.

chymotrypsin = assay: Activity of DABF-AmB on various proteases: chymotrypsin; format: biochemical; conditions: 1 μM
Experimental: (§1) DABF-AmB was tested, at a concentration of 1 μM, on various proteases (papain, chymotrypsin, kallicrein, leucocyte elastase, cathopsin D and recombinant protease p10) under conditions and in the presence of substrates appropriate for each of the proteases tested.

HIV2-rod = assay: Formation of syncytia in HUT78 cells infected with HIV2-rod; format: cell-based, HIV-2
Experimental: HUT78 cells were inoculated in 96-well plates in an amount of 2×10^4 cells per well, in […]. They were infected with various viral concentrations and DABF-AmB was added immediately after the infection, at various concentrations. The formation of syncytia was evaluated after 3 and 5 days by direct reading under an inverted microscope (semi-quantitative test).

[1] = tested on: HIV-1 isolates derived from patients; assay: Infection of PBMCs by HIV-1 isolates derived from patients; format: cell-based; conditions: 10 μM, 10 viral strains derived from patients, RT activity after 10 days
Experimental: PBMCs were infected under the conditions described above in the general procedures, with various HIV-1 isolates derived from patients, or identified as resistant to AZT. The anti-viral effect of DABF-AmB was determined by measuring the RT activity in the supernatants after 10 days of culture.

HUT78 cells = assay: Cytotoxicity in HUT78 cells; format: cell-based
papain = papain (Carica papaya, UniProt P00784); assay: Activity of DABF-AmB on various proteases: papain; format: biochemical; conditions: 1 μM
Experimental: as §1

HRV14 = assay: Direct virucidal effect on HRV14 (preincubation of virus); format: cell-based; conditions: HRV14 preincubated 5 hours at 37° C.
Experimental: When the suspension of HRV14 is preincubated at 37° C. in the presence of DABF-AmB for 5 hours, no inhibition of the cytopathogenic effect is observed compared with a control suspension incubated under the same conditions in the absence of DABF-AmB.

CEM cells = assay: Cell viability of CEM cells; format: cell-based, human; conditions: concentrations above 100 μM
Description: Cell viability was estimated at the same time. […] It therefore appears that DABF-AmB inhibits the replication of HIV at doses which are not cytotoxic.

HIV (cellular viraemia) = assay: Cellular viraemia of AIDS patients' lymphocytes (p24 in supernatants); format: cell-based
Experimental: Lymphocytes from AIDS patients (<200CD4) are isolated on a Ficoll gradient using heparinised blood. The cells are taken up in RPMI 1640 medium containing antibiotics, 10 U/ml of recombinant IL2 (Boeringher) and anti-interferon alpha serum (anti-IFNα, Sigma) plus 10% of foetal calf serum. The cells are cultured in 24-well plates in an amount of 5×10^5 cells per well for the first concentration and then subjected to 5 fold serial dilutions in the same medium. Half of the medium is replaced twice weekly. Every week, 3×10^5 fresh allogeneic PBMCs, derived from healthy donors, are added to the cultures. The cultures are kept for 28 days in the presence of varying concentrations of DABF-AmB. Vital production is measured weekly by assaying the protein p24 in the supernatants. Each culture and each assay are carried out in duplicate.
The symbols (-) denote that the amount of p24 detected is at least 95% less than the values obtained in the untreated control cultures. […] The results obtained in the LOU patient indicates either a resistance of the virus to the product, or a too high initial viral content. These experiments made it possible to evaluate the IC50 for DABF-AmB at between 1 and 5 μM for the different viral isolates (IC50=Concentrationof the product inhibiting 50% of the p24 titer in the culture supernatants, for a patient cells dilution corresponding to a viral content equivalent to 10TCID50.

Sequence of papain (P00784 134-345): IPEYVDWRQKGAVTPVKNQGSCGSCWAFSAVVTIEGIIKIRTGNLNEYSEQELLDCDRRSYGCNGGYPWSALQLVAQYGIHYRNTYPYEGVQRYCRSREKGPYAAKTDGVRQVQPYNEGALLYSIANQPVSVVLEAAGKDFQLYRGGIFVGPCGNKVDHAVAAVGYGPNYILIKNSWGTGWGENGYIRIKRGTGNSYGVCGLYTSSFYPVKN

Compound: C[C@@H]1[C@H](O)[C@@H](C)/C=C/C=C/C=C/C=C/C=C/C=C/C=C/[C@H](O[C@@H]2O[C@H](C)[C@@H](O)[C@H](NCC(=O)[C@@H](O)[C@@H]3OC(c4ccccc4)OC[C@H]3O)[C@@H]2O)C[C@@H]2O[C@](O)(C[C@@H](O)C[C@@H](O)[C@H](O)CC[C@@H](O)C[C@@H](O)CC(=O)O[C@H]1C)C[C@H](O)[C@H]2C(=O)O (stereo partly drawn) [DABF-AmB, 1-deoxy-1-amino-4,6-O-benzylidene-D-fructosyl-AmB]
- inhibition at 10 µM (HIV): > 90%
- inhibition of chymotrypsin (chymotrypsin): does not inhibit
- formation of syncytia (HIV2-rod; 5 μM, 10 TCID50, 3 days): - and +
- formation of syncytia (HIV2-rod; 5 μM, 10 TCID50, 5 days): - and +
- formation of syncytia (HIV2-rod; 5 μM, 100 TCID50, 3 days): +
- formation of syncytia (HIV2-rod; 10 μM, 10 TCID50, 3 days): -
- formation of syncytia (HIV2-rod; 10 μM, 10 TCID50, 5 days): -
- formation of syncytia (HIV2-rod; 10 μM, 100 TCID50, 3 days): + and -
- formation of syncytia (HIV2-rod; 50 μM, 10 TCID50, 5 days): -
- formation of syncytia (HIV2-rod; 50 μM, 100 TCID50, 3 days): -
- formation of syncytia (HIV2-rod; 50 μM, 100 TCID50, 5 days): -
- formation of syncytia (HIV2-rod; 100 μM, 100 TCID50, 3 days): -
- formation of syncytia (HIV2-rod; 100 μM, 100 TCID50, 5 days): -
- inhibition of formation of syncytia (in words) (HIV2-rod; HUT78, HIV-2): in a dose-dependent manner
- inhibition of infection of PBMC [1]: substantially reducing, or even completely inhibiting
- cytotoxicity (HUT78 cells; 50 μM, HIV2 table, 3 days): low cytotoxicity
- cytotoxicity (HUT78 cells; 50 μM, SIV table, 3 days): low cytotoxicity
- cytotoxicity (HUT78 cells; 100 μM, HIV2 table, 3 days): high cytotoxicity
- cytotoxicity (HUT78 cells; 100 μM, HIV2 table, 5 days): cytotoxicity
- cytotoxicity (HUT78 cells; 100 μM, SIV table, 3 days): high cytotoxicity
- cytotoxicity (HUT78 cells; 100 μM, SIV table, 5 days): cytotoxicity
- inhibition of papain (papain): does not inhibit
- inhibition of the cytopathogenic effect after preincubation of virus (direct virucidal effect) (HRV14): no direct virucidal effect
- cytotoxic effect (CEM cells): no cytotoxic effect
- number of patients in which cellular viraemia is inhibited (HIV (cellular viraemia); 8 different patients): 7 out of 8
- IC50 (HIV (cellular viraemia); Human immunodeficiency virus 1, Lymphocyte, read-out: IC50 (concentration inhibiting 50% of the p24 titer in the culture supernatants)): 1000 to 5000 nM
- cellular viraemia (p24) (HIV (cellular viraemia); patient SAM + MS, day 0): - (the amount of p24 detected is at least 95% less than the values obtained in the untreated control cultures)
- cellular viraemia (p24) (HIV (cellular viraemia); patient SAM + MS, day 14): - (the amount of p24 detected is at least 95% less than the values obtained in the untreated control cultures)
- cellular viraemia (p24) (HIV (cellular viraemia); patient five + MS, day 0): - (the amount of p24 detected is at least 95% less than the values obtained in the untreated control cultures)
- cellular viraemia (p24) (HIV (cellular viraemia); patient five + MS, day 7): - (the amount of p24 detected is at least 95% less than the values obtained in the untreated control cultures)
- cellular viraemia (p24) (HIV (cellular viraemia); patient four + MS, day 0): - (the amount of p24 detected is at least 95% less than the values obtained in the untreated control cultures)
- cellular viraemia (p24) (HIV (cellular viraemia); patient four + MS, day 7): - (the amount of p24 detected is at least 95% less than the values obtained in the untreated control cultures)
- cellular viraemia (p24) (HIV (cellular viraemia); patient four + MS, day 14): - (the amount of p24 detected is at least 95% less than the values obtained in the untreated control cultures)
- cellular viraemia (p24) (HIV (cellular viraemia); patient four + MS, day 21): - (the amount of p24 detected is at least 95% less than the values obtained in the untreated control cultures)
- cellular viraemia (p24) (HIV (cellular viraemia); patient four + MS, day 28): - (the amount of p24 detected is at least 95% less than the values obtained in the untreated control cultures)
- cellular viraemia (p24) (HIV (cellular viraemia); patient one + MS, day 0): - (the amount of p24 detected is at least 95% less than the values obtained in the untreated control cultures)
- cellular viraemia (p24) (HIV (cellular viraemia); patient one + MS, day 7): - (the amount of p24 detected is at least 95% less than the values obtained in the untreated control cultures)
- cellular viraemia (p24) (HIV (cellular viraemia); patient seven + MS, day 0): - (the amount of p24 detected is at least 95% less than the values obtained in the untreated control cultures)
- cellular viraemia (p24) (HIV (cellular viraemia); patient seven + MS, day 14): - (the amount of p24 detected is at least 95% less than the values obtained in the untreated control cultures)
- cellular viraemia (p24) (HIV (cellular viraemia); patient six + MS, day 0): - (the amount of p24 detected is at least 95% less than the values obtained in the untreated control cultures)
- cellular viraemia (p24) (HIV (cellular viraemia); patient six + MS, day 14): - (the amount of p24 detected is at least 95% less than the values obtained in the untreated control cultures)
- cellular viraemia (p24) (HIV (cellular viraemia); patient three + MS, day 0): - (the amount of p24 detected is at least 95% less than the values obtained in the untreated control cultures)
- cellular viraemia (p24) (HIV (cellular viraemia); patient three + MS, day 7): - (the amount of p24 detected is at least 95% less than the values obtained in the untreated control cultures)
- cellular viraemia (p24) (HIV (cellular viraemia); patient three + MS, day 14): - (the amount of p24 detected is at least 95% less than the values obtained in the untreated control cultures)
- cellular viraemia (p24) (HIV (cellular viraemia); patient three + MS, day 21): - (the amount of p24 detected is at least 95% less than the values obtained in the untreated control cultures)
- cellular viraemia (p24) (HIV (cellular viraemia); patient three + MS, day 28): - (the amount of p24 detected is at least 95% less than the values obtained in the untreated control cultures)
- cellular viraemia (p24) (HIV (cellular viraemia); patient two + MS, day 0): - (the amount of p24 detected is at least 95% less than the values obtained in the untreated control cultures)
- cellular viraemia (p24) (HIV (cellular viraemia); patient two + MS, day 7): - (the amount of p24 detected is at least 95% less than the values obtained in the untreated control cultures)
- cellular viraemia (p24) (HIV (cellular viraemia); patient two + MS, day 14): - (the amount of p24 detected is at least 95% less than the values obtained in the untreated control cultures)
- cellular viraemia (p24) (HIV (cellular viraemia); patient two + MS, day 21): - (the amount of p24 detected is at least 95% less than the values obtained in the untreated control cultures)
- cellular viraemia (p24) (HIV (cellular viraemia); patient two + MS, day 28): - (the amount of p24 detected is at least 95% less than the values obtained in the untreated control cultures)

From patent US5514662A, “Use of amphotericin B derivatives as protease inhibitors” (priority 1991, dated 1996)
